# Experimental data from ChEMBL document CHEMBL3991601, “The target landscape of clinical kinase drugs” (Science, 2017).
# Calls of active or inactive are those of the source.
# Legend:
# Activin receptor type-1B = biological target: T1, Activin receptor type-1B (Homo sapiens, UniProt P36896)
# T1 sequence (P36896 whole entry): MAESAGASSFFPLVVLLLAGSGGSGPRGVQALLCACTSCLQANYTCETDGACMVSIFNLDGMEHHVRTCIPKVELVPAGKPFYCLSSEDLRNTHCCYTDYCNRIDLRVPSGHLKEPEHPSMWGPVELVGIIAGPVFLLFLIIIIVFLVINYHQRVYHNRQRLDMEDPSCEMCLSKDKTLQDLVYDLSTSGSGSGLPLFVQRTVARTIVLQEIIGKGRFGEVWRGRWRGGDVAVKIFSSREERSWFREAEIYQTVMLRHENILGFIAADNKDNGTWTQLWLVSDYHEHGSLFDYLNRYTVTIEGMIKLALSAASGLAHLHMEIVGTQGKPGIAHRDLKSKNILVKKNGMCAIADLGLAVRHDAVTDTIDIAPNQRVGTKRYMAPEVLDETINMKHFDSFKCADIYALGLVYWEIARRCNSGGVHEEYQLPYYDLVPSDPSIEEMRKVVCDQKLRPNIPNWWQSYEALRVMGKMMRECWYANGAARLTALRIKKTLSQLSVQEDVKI
# Aurora kinase B = Aurora kinase B (Homo sapiens, UniProt Q96GD4)
# [1] = biological target: T2, Isoleucine--tRNA ligase, mitochondrial (Homo sapiens, UniProt Q9NSE4)
# T2 sequence (Q9NSE4 whole entry): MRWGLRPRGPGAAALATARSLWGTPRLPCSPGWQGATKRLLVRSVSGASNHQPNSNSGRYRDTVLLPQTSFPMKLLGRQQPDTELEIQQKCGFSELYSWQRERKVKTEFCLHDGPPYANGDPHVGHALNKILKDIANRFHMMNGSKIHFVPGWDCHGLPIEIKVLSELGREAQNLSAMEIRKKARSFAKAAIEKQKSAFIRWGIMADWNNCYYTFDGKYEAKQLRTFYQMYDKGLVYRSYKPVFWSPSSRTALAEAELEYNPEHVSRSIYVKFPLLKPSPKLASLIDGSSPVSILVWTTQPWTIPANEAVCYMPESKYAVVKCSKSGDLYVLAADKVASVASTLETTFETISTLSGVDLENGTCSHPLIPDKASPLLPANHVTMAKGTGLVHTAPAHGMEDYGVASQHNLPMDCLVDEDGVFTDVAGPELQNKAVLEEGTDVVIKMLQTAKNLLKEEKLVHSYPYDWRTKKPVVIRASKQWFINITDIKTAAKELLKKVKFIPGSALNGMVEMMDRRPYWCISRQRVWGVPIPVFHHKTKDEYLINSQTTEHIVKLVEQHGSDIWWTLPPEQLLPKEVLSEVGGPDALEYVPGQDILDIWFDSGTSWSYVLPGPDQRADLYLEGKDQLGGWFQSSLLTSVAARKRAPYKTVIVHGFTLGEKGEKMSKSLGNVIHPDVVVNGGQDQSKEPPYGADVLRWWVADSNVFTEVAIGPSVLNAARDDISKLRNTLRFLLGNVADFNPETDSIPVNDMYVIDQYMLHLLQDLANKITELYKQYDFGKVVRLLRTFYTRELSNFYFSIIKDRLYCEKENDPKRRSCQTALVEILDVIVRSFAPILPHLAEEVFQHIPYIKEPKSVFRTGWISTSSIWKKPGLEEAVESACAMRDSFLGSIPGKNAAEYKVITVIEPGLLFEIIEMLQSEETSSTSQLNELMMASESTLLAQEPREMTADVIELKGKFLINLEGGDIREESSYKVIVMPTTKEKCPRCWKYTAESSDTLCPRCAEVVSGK
# [2] = biological target: Mitogen-activated protein kinase 14 (Homo sapiens, UniProt Q16539)
# Misshapen-like kinase 1 = Misshapen-like kinase 1 (Homo sapiens, UniProt Q8N4C8)
# [3] = biological target: Protein kinase C beta type (Homo sapiens, UniProt P05771)
# [4] = biological target: Proto-oncogene tyrosine-protein kinase receptor Ret (Homo sapiens, UniProt P07949)
# [5] = biological target: Dual specificity testis-specific protein kinase 2 (Homo sapiens, UniProt Q96S53)
# [6] = biological target: T3, Long-chain-fatty-acid--CoA ligase 5 (Homo sapiens, UniProt Q9ULC5)
# T3 sequence (Q9ULC5 whole entry): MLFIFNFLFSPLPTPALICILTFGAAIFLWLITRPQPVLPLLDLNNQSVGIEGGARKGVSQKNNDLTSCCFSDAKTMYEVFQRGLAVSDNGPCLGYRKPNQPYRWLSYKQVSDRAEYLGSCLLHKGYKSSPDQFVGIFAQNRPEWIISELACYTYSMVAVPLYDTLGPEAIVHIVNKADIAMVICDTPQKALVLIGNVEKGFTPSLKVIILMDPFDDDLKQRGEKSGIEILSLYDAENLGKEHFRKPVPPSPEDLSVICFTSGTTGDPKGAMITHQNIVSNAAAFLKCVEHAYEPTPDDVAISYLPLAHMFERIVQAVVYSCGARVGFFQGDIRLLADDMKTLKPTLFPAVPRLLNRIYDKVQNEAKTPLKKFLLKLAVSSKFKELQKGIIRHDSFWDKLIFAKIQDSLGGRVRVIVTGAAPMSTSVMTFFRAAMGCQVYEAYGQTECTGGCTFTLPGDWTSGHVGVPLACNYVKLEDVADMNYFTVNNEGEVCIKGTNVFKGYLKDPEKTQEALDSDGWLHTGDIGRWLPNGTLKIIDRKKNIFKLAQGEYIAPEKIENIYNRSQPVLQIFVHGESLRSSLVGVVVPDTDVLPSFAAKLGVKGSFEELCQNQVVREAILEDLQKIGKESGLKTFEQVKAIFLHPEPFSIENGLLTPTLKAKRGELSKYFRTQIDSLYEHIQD
# [7] = biological target: Serine/threonine-protein kinase Nek7 (Homo sapiens, UniProt Q8TDX7)
# [8] = biological target: Serine/threonine-protein kinase 38-like (Homo sapiens, UniProt Q9Y2H1)
# Further: in the data inactive means no Kd found up to 30 µM.
# Chain of Misshapen-like kinase 1 (Q8N4C8 whole entry): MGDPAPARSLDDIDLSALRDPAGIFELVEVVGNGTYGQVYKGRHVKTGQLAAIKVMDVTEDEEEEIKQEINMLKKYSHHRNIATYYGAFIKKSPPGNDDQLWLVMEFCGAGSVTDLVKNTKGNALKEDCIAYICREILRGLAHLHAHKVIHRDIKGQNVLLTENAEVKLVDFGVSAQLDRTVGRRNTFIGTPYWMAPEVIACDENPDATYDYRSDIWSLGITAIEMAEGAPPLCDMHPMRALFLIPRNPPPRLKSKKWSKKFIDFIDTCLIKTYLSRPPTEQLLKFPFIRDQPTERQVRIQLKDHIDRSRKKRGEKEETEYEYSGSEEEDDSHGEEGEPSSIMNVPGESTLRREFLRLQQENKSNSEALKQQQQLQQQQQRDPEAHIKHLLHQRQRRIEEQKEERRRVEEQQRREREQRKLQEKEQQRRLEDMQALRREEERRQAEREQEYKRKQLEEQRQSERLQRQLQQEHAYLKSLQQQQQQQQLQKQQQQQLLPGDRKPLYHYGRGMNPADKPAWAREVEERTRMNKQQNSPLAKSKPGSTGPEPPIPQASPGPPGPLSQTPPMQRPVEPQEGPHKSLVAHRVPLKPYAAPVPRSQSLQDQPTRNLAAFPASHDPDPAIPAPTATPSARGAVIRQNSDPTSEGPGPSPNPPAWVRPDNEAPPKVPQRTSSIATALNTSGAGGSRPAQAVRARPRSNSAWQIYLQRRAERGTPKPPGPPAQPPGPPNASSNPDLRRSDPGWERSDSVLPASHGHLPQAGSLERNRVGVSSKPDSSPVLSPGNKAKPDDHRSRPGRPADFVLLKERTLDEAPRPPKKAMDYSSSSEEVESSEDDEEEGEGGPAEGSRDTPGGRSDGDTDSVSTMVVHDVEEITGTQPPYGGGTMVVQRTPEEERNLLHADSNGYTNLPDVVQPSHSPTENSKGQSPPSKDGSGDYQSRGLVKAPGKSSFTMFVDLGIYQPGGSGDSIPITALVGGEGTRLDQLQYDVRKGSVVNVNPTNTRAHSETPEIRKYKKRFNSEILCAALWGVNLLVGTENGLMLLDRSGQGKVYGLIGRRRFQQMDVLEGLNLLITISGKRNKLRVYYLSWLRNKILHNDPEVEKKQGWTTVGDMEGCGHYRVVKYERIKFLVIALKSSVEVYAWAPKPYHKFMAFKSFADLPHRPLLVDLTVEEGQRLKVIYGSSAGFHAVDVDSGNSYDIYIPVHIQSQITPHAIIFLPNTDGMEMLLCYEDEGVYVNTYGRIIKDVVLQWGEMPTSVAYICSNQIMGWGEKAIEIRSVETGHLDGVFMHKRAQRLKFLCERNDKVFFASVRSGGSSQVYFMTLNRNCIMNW
# Chain of Dual specificity testis-specific protein kinase 2 (Q96S53 whole entry): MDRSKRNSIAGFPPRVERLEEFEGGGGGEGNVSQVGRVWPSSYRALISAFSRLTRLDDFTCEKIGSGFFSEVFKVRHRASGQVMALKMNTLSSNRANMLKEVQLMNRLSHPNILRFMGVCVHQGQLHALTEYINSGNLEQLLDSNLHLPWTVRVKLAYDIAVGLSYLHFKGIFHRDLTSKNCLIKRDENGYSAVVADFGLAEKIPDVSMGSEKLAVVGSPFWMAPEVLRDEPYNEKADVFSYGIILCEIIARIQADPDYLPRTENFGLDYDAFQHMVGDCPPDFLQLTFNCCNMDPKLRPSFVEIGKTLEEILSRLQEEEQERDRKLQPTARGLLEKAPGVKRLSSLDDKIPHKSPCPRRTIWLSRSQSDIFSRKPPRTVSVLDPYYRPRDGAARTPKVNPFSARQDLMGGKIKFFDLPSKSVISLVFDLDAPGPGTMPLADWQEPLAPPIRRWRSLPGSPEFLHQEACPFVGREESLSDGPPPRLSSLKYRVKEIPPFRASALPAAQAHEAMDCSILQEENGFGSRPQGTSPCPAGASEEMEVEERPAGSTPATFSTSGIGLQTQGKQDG
# Chain of Proto-oncogene tyrosine-protein kinase receptor Ret (P07949 whole entry): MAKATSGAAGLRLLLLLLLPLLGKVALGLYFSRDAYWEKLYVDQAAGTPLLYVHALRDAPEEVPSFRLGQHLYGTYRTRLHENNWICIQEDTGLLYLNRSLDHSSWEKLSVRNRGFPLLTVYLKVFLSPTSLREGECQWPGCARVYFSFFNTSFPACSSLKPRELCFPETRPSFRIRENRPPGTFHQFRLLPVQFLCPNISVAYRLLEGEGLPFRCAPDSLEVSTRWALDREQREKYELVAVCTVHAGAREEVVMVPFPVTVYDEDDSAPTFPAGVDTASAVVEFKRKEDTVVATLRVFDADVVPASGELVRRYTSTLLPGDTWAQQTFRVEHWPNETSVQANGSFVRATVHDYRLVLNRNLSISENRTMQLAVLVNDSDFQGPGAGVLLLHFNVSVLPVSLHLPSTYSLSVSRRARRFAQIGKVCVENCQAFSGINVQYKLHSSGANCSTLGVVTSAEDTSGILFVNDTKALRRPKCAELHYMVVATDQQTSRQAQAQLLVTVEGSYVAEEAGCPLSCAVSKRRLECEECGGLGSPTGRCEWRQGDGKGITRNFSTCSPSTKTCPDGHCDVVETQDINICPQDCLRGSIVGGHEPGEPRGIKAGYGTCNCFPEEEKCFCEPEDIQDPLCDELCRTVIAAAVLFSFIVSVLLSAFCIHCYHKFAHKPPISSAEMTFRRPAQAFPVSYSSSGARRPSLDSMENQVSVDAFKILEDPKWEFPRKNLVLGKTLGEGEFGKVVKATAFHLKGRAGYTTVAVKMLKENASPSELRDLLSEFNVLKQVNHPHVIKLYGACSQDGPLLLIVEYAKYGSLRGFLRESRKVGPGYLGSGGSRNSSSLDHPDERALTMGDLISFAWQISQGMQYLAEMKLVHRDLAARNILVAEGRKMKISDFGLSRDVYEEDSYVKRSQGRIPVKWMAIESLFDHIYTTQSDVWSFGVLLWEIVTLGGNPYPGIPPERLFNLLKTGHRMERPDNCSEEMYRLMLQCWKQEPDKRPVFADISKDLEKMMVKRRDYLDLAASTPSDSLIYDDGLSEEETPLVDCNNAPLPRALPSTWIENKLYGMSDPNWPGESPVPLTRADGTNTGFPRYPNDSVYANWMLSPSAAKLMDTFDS
# Chain of Serine/threonine-protein kinase 38-like (Q9Y2H1 whole entry): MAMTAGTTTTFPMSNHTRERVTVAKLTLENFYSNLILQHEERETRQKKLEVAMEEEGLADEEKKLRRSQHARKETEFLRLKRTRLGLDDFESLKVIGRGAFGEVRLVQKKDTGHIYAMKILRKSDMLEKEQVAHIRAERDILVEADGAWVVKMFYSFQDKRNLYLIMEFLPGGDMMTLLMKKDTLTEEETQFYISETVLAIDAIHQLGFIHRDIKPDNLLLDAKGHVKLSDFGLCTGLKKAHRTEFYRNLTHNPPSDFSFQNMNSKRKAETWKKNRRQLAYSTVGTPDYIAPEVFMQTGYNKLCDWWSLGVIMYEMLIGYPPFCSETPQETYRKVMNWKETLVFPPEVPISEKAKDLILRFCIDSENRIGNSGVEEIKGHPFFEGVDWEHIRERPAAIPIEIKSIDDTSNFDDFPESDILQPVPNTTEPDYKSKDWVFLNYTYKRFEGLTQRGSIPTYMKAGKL
# Chain of Serine/threonine-protein kinase Nek7 (Q8TDX7 whole entry): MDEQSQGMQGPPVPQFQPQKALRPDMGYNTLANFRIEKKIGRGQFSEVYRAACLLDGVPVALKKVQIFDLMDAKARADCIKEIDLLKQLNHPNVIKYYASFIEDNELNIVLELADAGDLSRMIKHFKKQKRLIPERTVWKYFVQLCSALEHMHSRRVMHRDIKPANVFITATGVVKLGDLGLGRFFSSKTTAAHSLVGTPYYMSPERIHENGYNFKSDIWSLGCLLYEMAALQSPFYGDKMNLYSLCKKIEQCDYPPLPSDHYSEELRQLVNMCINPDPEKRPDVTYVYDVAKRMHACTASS
# Chain of Mitogen-activated protein kinase 14 (Q16539 whole entry): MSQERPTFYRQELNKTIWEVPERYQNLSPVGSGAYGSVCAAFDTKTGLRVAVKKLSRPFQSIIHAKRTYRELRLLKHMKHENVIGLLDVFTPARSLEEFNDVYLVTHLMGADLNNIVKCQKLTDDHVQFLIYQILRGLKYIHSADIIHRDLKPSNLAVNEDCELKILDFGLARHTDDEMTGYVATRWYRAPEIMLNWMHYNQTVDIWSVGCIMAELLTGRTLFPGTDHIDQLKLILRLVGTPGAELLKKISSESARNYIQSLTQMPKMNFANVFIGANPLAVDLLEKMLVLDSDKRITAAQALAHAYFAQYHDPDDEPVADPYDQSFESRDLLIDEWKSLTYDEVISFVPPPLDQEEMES
# Chain of Protein kinase C beta type (P05771 whole entry): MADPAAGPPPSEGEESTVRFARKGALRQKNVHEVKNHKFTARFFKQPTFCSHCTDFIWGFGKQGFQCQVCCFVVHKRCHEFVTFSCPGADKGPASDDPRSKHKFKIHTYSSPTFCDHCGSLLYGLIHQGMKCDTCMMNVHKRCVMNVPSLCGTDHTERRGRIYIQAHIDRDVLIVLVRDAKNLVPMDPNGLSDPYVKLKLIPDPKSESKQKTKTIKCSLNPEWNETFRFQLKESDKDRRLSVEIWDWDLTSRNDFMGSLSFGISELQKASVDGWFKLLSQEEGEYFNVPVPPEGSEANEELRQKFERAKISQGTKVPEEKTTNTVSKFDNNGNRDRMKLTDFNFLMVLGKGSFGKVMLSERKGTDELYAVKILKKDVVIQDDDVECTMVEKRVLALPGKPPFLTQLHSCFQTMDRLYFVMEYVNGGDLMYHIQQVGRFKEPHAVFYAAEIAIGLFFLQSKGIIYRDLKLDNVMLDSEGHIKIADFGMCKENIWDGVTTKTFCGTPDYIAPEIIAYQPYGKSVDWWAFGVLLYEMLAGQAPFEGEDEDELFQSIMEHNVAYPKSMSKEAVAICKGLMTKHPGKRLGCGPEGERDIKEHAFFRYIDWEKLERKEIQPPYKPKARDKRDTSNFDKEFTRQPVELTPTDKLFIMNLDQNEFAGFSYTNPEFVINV
Kd (Activin receptor type-1B),Kd (Aurora kinase B),Kd [1],Kd [2],Kd (Misshapen-like kinase 1),Kd [3],Kd [4],Kd [5],Kd [6],Kd [7],Kd [8],Structure (SMILES)
> 30 µM (inactive),> 30 µM (inactive),,> 30 µM (inactive),,> 30 µM (inactive),,,> 30 µM (inactive),> 30 µM (inactive),> 30 µM (inactive),CCN1CCN(Cc2ccc(-c3cc4c(N[C@H](C)c5ccccc5)ncnc4[nH]3)cc2)CC1 [AEE-788]
0.425 µM (active),,> 30 µM (inactive),> 30 µM (inactive),> 30 µM (inactive),> 30 µM (inactive),0.388 µM (active),,,> 30 µM (inactive),,O=C(O)[C@]1(Cc2cccc(Nc3nccs3)n2)CC[C@@H](Oc2cccc(Cl)c2F)CC1 [MK-5108]
> 30 µM (inactive),0.1 µM (active),,> 30 µM (inactive),> 30 µM (inactive),> 30 µM (inactive),> 30 µM (inactive),,,,,COc1cc(N2CCC(N3CCN(C)CC3)CC2)ccc1Nc1ncnc(Nc2ccccc2S(=O)(=O)C(C)C)n1 [ASP-3026]
> 30 µM (inactive),> 30 µM (inactive),,,> 30 µM (inactive),> 30 µM (inactive),> 30 µM (inactive),,> 30 µM (inactive),,,CNC(=O)c1ccc(C)c(-n2c(C)cc(OCc3ccc(F)cc3F)c(Br)c2=O)c1 [PH-797804]
> 30 µM (inactive),> 30 µM (inactive),,> 30 µM (inactive),> 30 µM (inactive),> 30 µM (inactive),> 30 µM (inactive),> 30 µM (inactive),> 30 µM (inactive),,,Cn1cc(-c2ccc(F)c(C(F)(F)F)c2)nc1C1CCN(c2ncnc3[nH]ncc23)CC1 [LY-2584702]
> 30 µM (inactive),> 30 µM (inactive),> 30 µM (inactive),> 30 µM (inactive),> 30 µM (inactive),> 30 µM (inactive),3.22 µM (active),> 30 µM (inactive),> 30 µM (inactive),> 30 µM (inactive),,CN1CCC(CNc2ccc3ncc(-c4cccc(OC(F)(F)F)c4)n3n2)CC1 [SGI-1776]
> 30 µM (inactive),> 30 µM (inactive),,> 30 µM (inactive),,> 30 µM (inactive),> 30 µM (inactive),> 30 µM (inactive),> 30 µM (inactive),,> 30 µM (inactive),Cc1cc([C@@H](C)Nc2ccccc2C(=O)O)c2nc(N3CCOCC3)cc(=O)n2c1 [AZD-6482]

# Further lines, the compound ahead of its results:
Structure (SMILES),Kd (Activin receptor type-1B),Kd (Aurora kinase B),Kd [1],Kd [2],Kd (Misshapen-like kinase 1),Kd [3],Kd [4],Kd [5],Kd [6],Kd [7],Kd [8]
COC(=O)N[C@@H](C)CNc1nccc(-c2cn(C(C)C)nc2-c2cc(Cl)cc(NS(C)(=O)=O)c2F)n1 [ENCORAFENIB],> 30 µM (inactive),> 30 µM (inactive),> 30 µM (inactive),> 30 µM (inactive),> 30 µM (inactive),> 30 µM (inactive),> 30 µM (inactive),> 30 µM (inactive),,,
Cc1cc(-c2cc(O)ccc2Cl)cc2nnc(Nc3ccc(OCCN4CCCC4)cc3)nc12,0.001 µM (active),> 30 µM (inactive),,> 30 µM (inactive),,> 30 µM (inactive),0.001 µM (active),> 30 µM (inactive),> 30 µM (inactive),> 30 µM (inactive),> 30 µM (inactive)
CCCS(=O)(=O)Nc1ccc(F)c(C(=O)c2c[nH]c3ncc(-c4ccc(Cl)cc4)cc23)c1F [VEMURAFENIB],> 30 µM (inactive),> 30 µM (inactive),,> 30 µM (inactive),,> 30 µM (inactive),> 30 µM (inactive),> 30 µM (inactive),> 30 µM (inactive),> 30 µM (inactive),> 30 µM (inactive)
CC(=O)Nc1cccc(-n2c(=O)n(C3CC3)c(=O)c3c(Nc4ccc(I)cc4F)n(C)c(=O)c(C)c32)c1 [TRAMETINIB],> 30 µM (inactive),> 30 µM (inactive),> 30 µM (inactive),> 30 µM (inactive),> 30 µM (inactive),> 30 µM (inactive),> 30 µM (inactive),> 30 µM (inactive),,,
CC(C)Nc1cc(-c2c[nH]c(C(=O)N[C@H](CO)c3cccc(Cl)c3)c2)c(Cl)cn1 [ULIXERTINIB],> 30 µM (inactive),> 30 µM (inactive),> 30 µM (inactive),> 30 µM (inactive),,> 30 µM (inactive),> 30 µM (inactive),> 30 µM (inactive),> 30 µM (inactive),> 30 µM (inactive),
C[C@@H]1CN(Cc2ccc(F)cc2)[C@@H](C)CN1C(=O)c1cc2c(C(=O)C(=O)N(C)C)cn(C)c2cc1Cl [TALMAPIMOD],> 30 µM (inactive),> 30 µM (inactive),,,,> 30 µM (inactive),> 30 µM (inactive),> 30 µM (inactive),> 30 µM (inactive),,> 30 µM (inactive)
CNC(=O)c1ccc(-c2cnc3ncc(Cc4ccc5ncccc5c4)n3n2)cc1F [CAPMATINIB],> 30 µM (inactive),> 30 µM (inactive),> 30 µM (inactive),> 30 µM (inactive),> 30 µM (inactive),> 30 µM (inactive),> 30 µM (inactive),,,> 30 µM (inactive),
Cc1ccc(NC(=O)c2ccc(CN3CC[C@H](N(C)C)C3)c(C(F)(F)F)c2)cc1Nc1nccc(-c2cncnc2)n1 [BAFETINIB],> 30 µM (inactive),> 30 µM (inactive),,0.536 µM (active),,> 30 µM (inactive),2.42 µM (active),> 30 µM (inactive),> 30 µM (inactive),> 30 µM (inactive),> 30 µM (inactive)
COCCNCc1ccc(-c2cc3nccc(Oc4ccc(NC(=S)NC(=O)Cc5ccc(F)cc5)cc4F)c3s2)nc1 [GLESATINIB],> 30 µM (inactive),> 30 µM (inactive),> 30 µM (inactive),> 30 µM (inactive),,> 30 µM (inactive),> 30 µM (inactive),> 30 µM (inactive),> 30 µM (inactive),> 30 µM (inactive),
Cc1cc2c(F)c(Oc3ncnn4cc(OC[C@@H](C)OC(=O)[C@H](C)N)c(C)c34)ccc2[nH]1 [BRIVANIB ALANINATE],> 30 µM (inactive),> 30 µM (inactive),,> 30 µM (inactive),,> 30 µM (inactive),7.48 µM (active),> 30 µM (inactive),> 30 µM (inactive),> 30 µM (inactive),> 30 µM (inactive)
